Data on 7 compounds can be found in ChEMBL document CHEMBL5303573, “Mapping human microbiome drug metabolism by gut bacteria and their genes” (Nature, 2019).

Data set [1] is described as follows: The drug is tested on Bifidobacterium breve strain: DSM20213 for biotransformation. The drug concentrations were measured before and after a 12-h incubation by liquid-chromatography-coupled mass spectrometry (LC–MS). As to conditions: 2 µM.
A short description of data set [2]: The drug is tested on Bacteroides dorei strain: DSM17855 for biotransformation. The drug concentrations were measured before and after a 12-h incubation by liquid-chromatography-coupled mass spectrometry (LC–MS). The settings on record: phocaeicola dorei, 2 µM.
Data set [3] can be described thus: The drug is tested on Bacteroides fragilis strain: HMW615 for biotransformation. The drug concentrations were measured before and after a 12-h incubation by liquid-chromatography-coupled mass spectrometry (LC–MS). The settings on record: 2 µM.
The nature of data set [4]: The drug is tested on Bacteroides uniformis strain: ATCC8492 for biotransformation. The drug concentrations were measured before and after a 12-h incubation by liquid-chromatography-coupled mass spectrometry (LC–MS). The settings on record: 2 µM.
The nature of data set [5]: The drug is tested on Odoribacter splanchnicus strain: fecal isolate for biotransformation. The drug concentrations were measured before and after a 12-h incubation by liquid-chromatography-coupled mass spectrometry (LC–MS). The settings on record: 2 µM.
Data set [6] is described as follows: The drug is tested on Anaerococcus hydrogenalis strain: DSM7454 for biotransformation. The drug concentrations were measured before and after a 12-h incubation by liquid-chromatography-coupled mass spectrometry (LC–MS). The settings on record: 2 µM.
A short description of data set [7]: The drug is tested on Clostridium asparagiforme strain: DSM15981 for biotransformation. The drug concentrations were measured before and after a 12-h incubation by liquid-chromatography-coupled mass spectrometry (LC–MS). In kind it is ADME. Details: dose 2 uM, timepoint 0 vs 12 hours. The settings on record: enterocloster asparagiformis, 2 µM.
The nature of data set [8]: The drug is tested on Clostridium symbiosum strain: ATCC14940 for biotransformation. The drug concentrations were measured before and after a 12-h incubation by liquid-chromatography-coupled mass spectrometry (LC–MS). The settings on record: 2 µM.
A short description of data set [9]: The drug is tested on Eubacterium hallii strain: DSM3353 for biotransformation. The drug concentrations were measured before and after a 12-h incubation by liquid-chromatography-coupled mass spectrometry (LC–MS). The settings on record: anaerobutyricum hallii, 2 µM.
Data set [10] is described as follows: The drug is tested on Eubacterium rectale strain: ATCC33656 for biotransformation. The drug concentrations were measured before and after a 12-h incubation by liquid-chromatography-coupled mass spectrometry (LC–MS). The settings on record: agathobacter rectalis, 2 µM.
Data set [11] can be described thus: The drug is tested on Edwardsiella tarda strain: ATCC23685 for biotransformation. The drug concentrations were measured before and after a 12-h incubation by liquid-chromatography-coupled mass spectrometry (LC–MS). The settings on record: 2 µM.
A short description of data set [12]: The drug is tested on Escherichia coli strain: BW25113 for biotransformation. The drug concentrations were measured before and after a 12-h incubation by liquid-chromatography-coupled mass spectrometry (LC–MS). As to conditions: 2 µM.
The conditions of data set [13]: bacteroides eggerthii, 12 h, 2 µM.
Description: The drug is tested on Bacteroides eggerthii strain: DSM20697 for biotransformation. The drug concentrations were measured before and after a 12-h incubation by liquid-chromatography-coupled mass spectrometry (LC–MS)
For data set [14] the following is noted: limosilactobacillus reuteri cf48-3a, 12 h, 2 µM.
Description: The drug is tested on Lactobacillus reuteri CF48-3A strain: BEI HM-102 for biotransformation. The drug concentrations were measured before and after a 12-h incubation by liquid-chromatography-coupled mass spectrometry (LC–MS)
Data set [15] in a line: The drug is tested on Bacteroides sp. WH2 strain: WH2 for biotransformation. The drug concentrations were measured before and after a 12-h incubation by liquid-chromatography-coupled mass spectrometry (LC–MS). As to conditions: bacteroides sp. wh2, 12 h, 2 µM.
Data set [16] can be described thus: The drug is tested on Enterococcus faecalis strain: V583 for biotransformation. The drug concentrations were measured before and after a 12-h incubation by liquid-chromatography-coupled mass spectrometry (LC–MS). The settings on record: 2 µM.
The conditions of data set [17]: bacteroides fragilis, 12 h, 2 µM.
Description: The drug is tested on Bacteroides fragilis strain: NCTC 9343 for biotransformation. The drug concentrations were measured before and after a 12-h incubation by liquid-chromatography-coupled mass spectrometry (LC–MS)
For data set [18] the following is noted: parabacteroides distasonis, 12 h, 2 µM.
Description: The drug is tested on Parabacteroides distasonis strain: ATCC8503 for biotransformation. The drug concentrations were measured before and after a 12-h incubation by liquid-chromatography-coupled mass spectrometry (LC–MS)
Data set [19] in a line: The drug is tested on Bacteroides coprophilus strain: DSM18228 for biotransformation. The drug concentrations were measured before and after a 12-h incubation by liquid-chromatography-coupled mass spectrometry (LC–MS). The settings on record: 2 µM.

With `CN1C(C(=O)Nc2ccccn2)=C(O)c2sccc2S1(=O)=O` [TENOXICAM], the “Bacterial Biotransformation” value in data set [1], in data set [2], in [3], in [4], in [5] and in [6] was “Compound NOT metabolized” each time. Moreover, the “Bacterial Biotransformation” value in [7], in data set [8], in [9], in data set [10], in data set [11] and in data set [12] was “Compound NOT metabolized” each time. Further, the “Bacterial Biotransformation” value in [13] and in data set [14] was “Compound NOT metabolized” each time.
Consider `OC(CCN1CCCCC1)(c1ccccc1)C1CCCCC1` (configuration not stated) [TRIHEXYPHENIDYL], for which the “Bacterial Biotransformation” value in data set [1] is “Compound NOT metabolized”; in data set [2] it was “Compound metabolized”; in data set [4] it was “Compound metabolized”; in [15] it was “Compound NOT metabolized”; in data set [6] it was “Compound NOT metabolized”; in data set [7], “Compound NOT metabolized”. In addition, the “Bacterial Biotransformation” value in data set [8], in data set [16], in [9], in data set [10], in data set [11] and in data set [12] was “Compound NOT metabolized” each time. Further, the “Bacterial Biotransformation” value in data set [17], in [18] and in [14] was “Compound NOT metabolized” throughout.
On to `CC(C)c1nc(CN(C)C(=O)N[C@H](C(=O)N[C@@H](Cc2ccccc2)C[C@H](O)[C@H](Cc2ccccc2)NC(=O)OCc2cncs2)C(C)C)cs1` [RITONAVIR], for which the “Bacterial Biotransformation” value is “Compound NOT metabolized” in data set [1]; “Compound NOT metabolized” in [19]; “Compound metabolized” in [2]; “Compound metabolized” in [4]; “Compound NOT metabolized” in data set [15]; “Compound metabolized” in data set [5]. Besides, the “Bacterial Biotransformation” value in [6], in data set [7], in data set [8], in data set [16], in data set [9] and in [11] was “Compound NOT metabolized” each time. In addition, the “Bacterial Biotransformation” value in data set [12] was “Compound metabolized”; in [13] it was “Compound metabolized”; in [17], “Compound metabolized”; in data set [18], “Compound NOT metabolized”; in [14], “Compound NOT metabolized”.
Take `O=P(O)(O)O.c1ccc(CN(CC2=NCCN2)c2ccccc2)cc1` [ANTAZOLINE PHOSPHATE]: the “Bacterial Biotransformation” value in data set [19], in [2], in [4], in data set [15], in [6] and in data set [7] was “Compound NOT metabolized” each time. The “Bacterial Biotransformation” value in data set [8], in data set [16], in data set [9], in data set [10], in data set [11] and in [13] was “Compound NOT metabolized” each time. The “Bacterial Biotransformation” value in data set [17] and in data set [14] was “Compound NOT metabolized” in each case.
As for `COc1cc(C(=O)NCc2ccc(OCCN(C)C)cc2)cc(OC)c1OC` [TRIMETHOBENZAMIDE], the “Bacterial Biotransformation” value in data set [1], in [19], in data set [2], in data set [3], in [4] and in data set [15] was “Compound NOT metabolized” throughout. Besides, the “Bacterial Biotransformation” value in [5], in data set [6], in data set [7], in data set [8], in data set [16] and in data set [9] was “Compound NOT metabolized” each time. Moreover, the “Bacterial Biotransformation” value in [11], in [13], in [17], in data set [18] and in [14] was “Compound NOT metabolized” in each case.
As for `CC(CN1c2ccccc2Sc2ccccc21)N(C)C` (configuration not stated) [PROMETHAZINE], the “Bacterial Biotransformation” value in data set [1], in data set [3], in data set [4], in [15], in data set [6] and in data set [7] was “Compound NOT metabolized” in each case. Further, the “Bacterial Biotransformation” value in [8], in [16], in data set [9], in data set [10], in data set [11] and in data set [13] was “Compound NOT metabolized” throughout. In addition, the “Bacterial Biotransformation” value in data set [17] and in data set [14] was “Compound NOT metabolized” in each case.
As to `CN1CC(=O)N2[C@H](c3ccc4c(c3)OCO4)c3[nH]c4ccccc4c3C[C@@H]2C1=O`, the “Bacterial Biotransformation” value is “Compound NOT metabolized” in data set [1]; “Compound NOT metabolized” in [19]; “Compound metabolized” in data set [3]; “Compound NOT metabolized” in [4]; “Compound NOT metabolized” in [15]; “Compound NOT metabolized” in [6]. In addition, the “Bacterial Biotransformation” value in data set [7], in data set [8], in data set [16], in data set [9], in data set [10] and in data set [11] was “Compound NOT metabolized” in each case. The “Bacterial Biotransformation” value in data set [13], in [17], in data set [18] and in data set [14] was “Compound NOT metabolized” throughout.
